Data taken from patent US5045530A, “Pharmaceutical preparations” (priority 1986, dated 1991).
Values joined by “and” are separate entries in the source; they are usually repeats but may differ in a detail not shown here. Equal values may be shown once. Read-outs that look alike come from different tables or passages of the source.

Legend:
[1] = critical micellization concentration (cmc); type: physicochemical
[2] = hydrodynamic (Stokes) radius / size of micelles and vesicles, inelastic light scattering; type: physicochemical
[3] = biological target: B. subtilis DNA polymerase III (Bacillus subtilis, UniProt P13267); experiment: inhibition of DNA polymerase III by micellarly included Hg(CN)2 and Hg(CN)2 ascorbate; type: biochemical; conditions: micellarly included Hg(CN)2 / Hg(CN)2 ascorbate in the tenside named
Chain of B. subtilis DNA polymerase III (P13267 whole entry): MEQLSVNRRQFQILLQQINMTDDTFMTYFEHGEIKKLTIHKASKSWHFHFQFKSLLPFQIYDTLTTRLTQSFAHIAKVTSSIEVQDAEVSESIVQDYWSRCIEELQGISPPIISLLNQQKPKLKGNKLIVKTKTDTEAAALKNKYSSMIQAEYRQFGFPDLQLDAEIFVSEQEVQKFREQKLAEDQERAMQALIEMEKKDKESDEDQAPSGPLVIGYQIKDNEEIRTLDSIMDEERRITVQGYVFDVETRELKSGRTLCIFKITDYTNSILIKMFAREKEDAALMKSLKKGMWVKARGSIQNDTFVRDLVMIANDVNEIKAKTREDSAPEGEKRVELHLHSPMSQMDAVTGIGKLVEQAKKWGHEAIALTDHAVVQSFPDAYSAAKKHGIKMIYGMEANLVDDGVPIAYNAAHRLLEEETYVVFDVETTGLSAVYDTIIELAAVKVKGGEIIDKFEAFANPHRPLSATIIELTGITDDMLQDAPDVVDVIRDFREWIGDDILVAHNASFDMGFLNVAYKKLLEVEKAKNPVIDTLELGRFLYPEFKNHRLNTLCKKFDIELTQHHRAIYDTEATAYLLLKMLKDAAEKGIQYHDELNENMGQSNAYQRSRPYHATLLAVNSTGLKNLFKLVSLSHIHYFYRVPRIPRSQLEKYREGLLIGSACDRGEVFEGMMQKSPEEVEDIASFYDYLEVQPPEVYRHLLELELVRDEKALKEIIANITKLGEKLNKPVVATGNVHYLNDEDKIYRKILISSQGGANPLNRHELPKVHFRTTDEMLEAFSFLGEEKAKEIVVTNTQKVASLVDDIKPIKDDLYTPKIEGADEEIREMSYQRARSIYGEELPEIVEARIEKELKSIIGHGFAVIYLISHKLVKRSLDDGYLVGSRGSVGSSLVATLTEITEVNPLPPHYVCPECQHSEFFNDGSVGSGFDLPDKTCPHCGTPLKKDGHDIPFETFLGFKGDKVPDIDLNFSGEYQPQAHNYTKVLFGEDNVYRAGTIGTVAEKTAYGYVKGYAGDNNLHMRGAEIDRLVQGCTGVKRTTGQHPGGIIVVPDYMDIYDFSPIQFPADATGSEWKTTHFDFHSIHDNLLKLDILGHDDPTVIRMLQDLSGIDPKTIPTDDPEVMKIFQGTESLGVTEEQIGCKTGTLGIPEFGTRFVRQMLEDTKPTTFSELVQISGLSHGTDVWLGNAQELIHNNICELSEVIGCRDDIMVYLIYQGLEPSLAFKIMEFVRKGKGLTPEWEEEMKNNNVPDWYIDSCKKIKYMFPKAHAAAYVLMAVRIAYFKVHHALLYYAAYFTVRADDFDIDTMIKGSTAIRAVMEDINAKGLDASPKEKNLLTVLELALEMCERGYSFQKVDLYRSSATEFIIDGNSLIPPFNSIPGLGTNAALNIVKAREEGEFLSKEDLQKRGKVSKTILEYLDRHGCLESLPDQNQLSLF
Procedure: Analogously to example 2 10 mg Hg(CN)2 and 40 mg Na ascorbate at pH 7.0 are dissolved in 10 ml phosphate buffer. The suspension is subjected to an ultrasonic treatment at 0° C. for 5 min, slowly heated to 20° C. and centrifuged to a 10% (^w /w) linear glycerol gradient in a preparative ultracentrifuge at 1000 xg for 6 hours (20° C., Polyalomer tubes).
The inhibitor concentrations are given in 50% of the complete inhibition. The assay which was used is that according to Clements, J; D'Ambrosio, J; Brown, N.C; J.Biol.Chem. (1975) 250, 522 and Wright, G.E.; Brown, N.C; Biochem. Biophys. Acta (1976) 432, 37.

influenza A virus = type: cell-based
influenza A strains [4] = type: cell-based, influenza virus type A
influenza virus type B = experiment: inhibition of influenza B in vitro; type: cell-based
Procedure: Amantadine (1-adamantanamine-HCl) has a particular pharmadynamic action against influenza viruses (class A). The replication of most influenza A strains is inhibited in vitro between 0.2-0.6 μg/ml. Micellarly included amantadine in cationic micelles, in particular of the form (Het≡N--(CH2)x --CH3)Y⊖, effect a reduction of the concentration of pharmaceutical active substance to 0.05 μg/ml amantadine, measured by Hayden et al. (Plaque inhibition assay for drug susceptibility resting of influenza viruses. Antimicrob. Ag. Chemother. 1980, 17: […]; Grunert et al.; Sensitivity of influenza A/New Jersey 18/76/(Hswl-Nl) virus to amantadine HCl, J. Inf. Dis. 1977, 136, 297-300).
With a concentration of 0.01% by weight of amantadine for influenza virus type B corresponding to a concentration of 0.5 μg/ml pharmaceutical active substance in vitro.

influenza A strains [5] = conditions: amantadine on its own, in vitro; cited from earlier work
[6] = micellar incorporation of active substances by dialysis, extinction at 260 nm; type: physicochemical; conditions: hexadecylpyridinium chloride micelles, 20° C., pH 5.5
[7] = system: influenza virus, subgroup A2; Herpes simplex virus HSV I-III; type: cell-based; conditions: monolayer cells infected with Herpes simplex virus type 1 or influenza virus type A2; with N+-tensides of formula I and II
pyrimidine biosynthesis = experiment: pyrimidine biosynthesis; conditions: micellarly included
salivary secretion = conditions: in vivo
fungus = experiment: antifungal effect in combination with N-tensides; conditions: combination with N+ tensides of formula I and II
adenosine-desaminase = biological target: T1, adenosine-desaminase (Homo sapiens, UniProt P00813); experiment: antitumor activity of micellarly dissolved adenosine-desaminase inhibitors; conditions: dissolved micellarly according to formula I and II
T1 sequence (P00813 1-363): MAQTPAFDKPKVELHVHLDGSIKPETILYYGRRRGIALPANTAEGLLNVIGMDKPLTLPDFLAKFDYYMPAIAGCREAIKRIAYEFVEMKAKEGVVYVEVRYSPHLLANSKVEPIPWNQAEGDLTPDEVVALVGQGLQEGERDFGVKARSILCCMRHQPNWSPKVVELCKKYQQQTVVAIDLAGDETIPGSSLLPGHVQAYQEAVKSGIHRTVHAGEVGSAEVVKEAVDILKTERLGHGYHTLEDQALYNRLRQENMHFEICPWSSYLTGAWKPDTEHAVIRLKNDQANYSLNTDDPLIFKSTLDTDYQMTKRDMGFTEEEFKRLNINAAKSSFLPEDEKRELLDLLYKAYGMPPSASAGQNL

[8] = in vivo; cited from earlier work

In the case of 2,5-Dimethyl-3-hexadecyl-thiazolium, the “cmc × 10^-6 M” value ([1]; Table 2, HET≡N+-(CH2)x-CH3 Y-) is reported as 15.00 × 10^-6 M.

With 2,6-Dihydroxy-dodecyl-pyrimidinium the “cmc × 10^-6 M” value ([1]; Table 2, HET≡N+-(CH2)x-CH3 Y-) was 1.90 × 10^-6 M.

In the case of 2-Carboxamid-3-hexadecyl-1,4-pyridinium, the “<RH> hydrodynamic radius” value ([2]; Table 3, counter ion Y- = NO3-) is reported as 440 Å.

In the case of “2-Hydroxy,5-methyl,6-amino-hexadecyl-pyrimidinium”, the “cmc × 10^-6 M” value ([1]; Table 2, HET≡N+-(CH2)x-CH3 Y-) is reported as 1.00 × 10^-6 M.

In the case of “2-Hydroxy,6-amino-hexadecyl-pyrimidinium”, the “cmc × 10^-6 M” value ([1]; Table 2, HET≡N+-(CH2)x-CH3 Y-) is reported as 2.00 × 10^-6 M.

For 2-carboxamid-3-dodecyl-1,4-pyridinium, the “<RH> hydrodynamic radius” value ([2]; Table 3, counter ion Y- = NO3-) was 366 Å.

For “3,5-bis[n-hexadecyloxy-carbonyl]-N-methyl-pyridinium”, the competitive with [3] was “dGTP”.

In the case of 3-Dodecyl-6-methyl-benzimidazolium, the “cmc × 10^-6 M” value ([1]; Table 2, HET≡N+-(CH2)x-CH3 Y-) is reported as 7.30 × 10^-6 M.

With “3-Hexadecyl-5,6-dihydroxy-benzthiazolium” the “cmc × 10^-6 M” value ([1]; Table 2, HET≡N+-(CH2)x-CH3 Y-) was 7.90 × 10^-6 M.

With 3-Hexadecyl-6-methyl-benzimidazolium the “cmc × 10^-6 M” value ([1]; Table 2, HET≡N+-(CH2)x-CH3 Y-) was 17.00 × 10^-6 M.

With 3-Hexadecylbenzimidazolium the “cmc × 10^-6 M” value ([1]; Table 2, HET≡N+-(CH2)x-CH3 Y-) was 6.70 × 10^-6 M.

In the case of 3-Hexadecylthiazolium, the “cmc × 10^-6 M” value ([1]; Table 2, HET≡N+-(CH2)x-CH3 Y-) is reported as 0.91 × 10^-6 M.

In the case of “3-[[(Dimethylamino)-carboxyl]oxyl]-1-hexadecyl-pyridinium”, the competitive with [3] is reported as “dATP”.

In the case of 4-Methyl- -2-hexadecyl-pyrazolium, the “cmc × 10^-6 M” value ([1]; Table 2, HET≡N+-(CH2)x-CH3 Y-) is reported as 0.70 × 10^-6 M.

In the case of 5-Methyl-1-hexadecylimidazolium, the “cmc × 10^-6 M” value ([1]; Table 2, HET≡N+-(CH2)x-CH3 Y-) is reported as 3.90 × 10^-6 M.

For 8-Ketohexadecylpyridinium, the competitive with [3] was “dGTP”.

With `Cl.NC12CC3CC(CC(C3)C1)C2` [1-adamantaneamine HCl, 1-adamantanamine-HCl] the “Inhibition, 10log (pfu/ml of the inhibitor)/(pfu/ml check)” value (influenza A virus) was -1.11, the “Titration of infection, Plaque forming units” value (influenza A virus) was 2 × 10^6 and the “concentration of active substance for inhibition” value (influenza A strains [4]) was 0.05 µg/mL. The “activity against influenza virus type B” value (influenza virus type B; amantadine on its own) was “practically no activity”, the “concentration showing inhibition of influenza virus type B” value (influenza virus type B; micellarly included in cationic tensides, 0.01% by weight of amantadine) was 0.5 µg/mL and the “concentration inhibiting replication of most influenza A strains” value (influenza A strains [5]) was 0.2 to 0.6 µg/mL.

With `CCCCCCCCCCCCCCCC[n+]1c(O)ncc(F)c1O` [2,6-Dihydroxy,5-Fluor,hexadecyl-pyrimidinium] the “cmc × 10^-6 M” value ([1]; Table 2, HET≡N+-(CH2)x-CH3 Y-) was 0.85 × 10^-6 M.

In the case of `CCCCCCCCCCCCCCCC[n+]1cc(F)c(O)cc1O` [2,-4-Dihydroxy-5-Fluoro hexadecyl-pyridinium], the “<RH> hydrodynamic radius” value [2] is reported as 210 and 150.

In the case of `CCCCCCCCCCCCCCCC[n+]1cc(C)c(O)cc1O` [2,-4-Dihydroxy-5-methyl-hexadecyl-pyridinium], the “<RH> hydrodynamic radius” value [2] is reported as 1000 and 1500.

With `CCCCCCCCCCCCCCCC[n+]1ccnc(C(N)=O)c1` [2-Carboxamide-4-hexadecyl-1,4-diazinium] the “cmc × 10^-6 M” value ([1]; Table 2, HET≡N+-(CH2)x-CH3 Y-) was 0.30 × 10^-6 M.

With `CCCCCCCCCCCC[n+]1csc2ccccc21` [3-Dodocyl-benzthiazolium] the “cmc × 10^-6 M” value ([1]; Table 2, HET≡N+-(CH2)x-CH3 Y-) was 10.90 × 10^-6 M.

For `CCCCCCCCCCCCCCCCC(CCCCCCCCCCCCCCCC)c1cc[n+](C)cc1.[Cl-]` [4-(17-tritriacontyl)-N-methylpyridinium chloride], the competitive with [3] was “dGTP”.

With `CCCCCCCCCCCC[n+]1ccccc1` [Dodecyl-pyridinium] the “cmc × 10^-6 M” value [1] was 1.52.

In the case of `O=c1[nH]c(=O)n([C@H]2C[C@H](O)[C@@H](CO)O2)cc1I` [Idoxuridine, idoxuridine], the “Yield (%) of micellar incorporation” value ([6]; Table 1 experiment 1, Trifluoroamame 5, Idoxuridine […]100 ml) is reported as 95%, the “Yield (%) of micellar incorporation” value ([6]; Table 1 experiment 2, Trifluoroamame 7.5, Idoxuridine 10.5 mg/100 ml) is reported as 98% and the “Yield (%) of micellar incorporation” value ([6]; Table 1 experiment 3, Trifluoroamame 10.0, Idoxuridine 12.5 mg/100 ml) is reported as 98%. For the same compound, the “Yield (%) of micellar incorporation” value ([6]; Table 1 experiment 4, Trifluoroamame 12.0, Idoxuridine […]100 ml) was 98%, the “Yield (%) of micellar incorporation” value ([6]; Table 1 experiment 5, Trifluoroamame 15.0, Idoxuridine 17.0 mg/100 ml) was 97% and the “Yield (%) of micellar incorporation” value ([6]; Table 1 experiment 6, Trifluoroamame 17.0, Idoxuridine 20.0 mg/100 ml) was 96%. The “Yield (%) of micellar incorporation” value ([6]; Table 1 experiment 7, Trifluoroamame 20.0, Idoxuridine 21.5 mg/100 ml) was 98%, the “Yield (%) of micellar incorporation” value ([6]; Table 1 experiment 8, Trifluoroamame 25.0, Idoxuridine 23.0 mg/100 ml) was 100% and the “Yield (%) of micellar incorporation” value ([6]; Table 1 experiment 9, Trifluoroamame 30.0, Idoxuridine 24.0 mg/100 ml) was 100%. For the same compound, the “Yield (%) of micellar incorporation” value ([6]; Table 1 experiment 10, Trifluoroamame 50.0, Idoxuridine 30.0 mg/100 ml) was 100% and the “lowering of the inhibition concentration compared with applications without quaternary ammonium bases” value [7] was 30%.

With `O=C(O)C[C@H](NC(=O)CP(=O)(O)O)C(=O)O` [N-(phosphonoacetyl)-aspartate] the “intensification of the effect on pyrimidine biosynthesis (blocking of the carbamylation of aspartate)” value (pyrimidine biosynthesis) was 20 fold.

With `CN1[C@@H]2CC[C@H]1C[C@@H](OC(=O)C(CO)c1ccccc1)C2` (stereo partly drawn) [atropine] the “intensification of the inhibitory effect on salivary secretion” value (salivary secretion) was “tenfold”.

With `Clc1ccccc1C(c1ccccc1)(c1ccccc1)n1ccnc1` [clotrimazole] the “intensification of the antifungal effect by N+ tensides” value (“intensification … by N+ tensides” for short) (fungus) was “≈ 35%”.

With `Nc1ccn([C@@H]2O[C@H](CO)[C@@H](O)[C@@H]2O)c(=O)n1` [cytarabine] the “lowering of the inhibition concentration compared with applications without quaternary ammonium bases” value [7] was 30%.

In the case of `Clc1ccc(COC(Cn2ccnc2)c2ccc(Cl)cc2Cl)cc1` (stereo not drawn) [econazole], the “intensification … by N+ tensides” value (fungus) is reported as “≈ 35%”.

In the case of `CCCCCCCCCCCCCCCC[n+]1ccccc1.[Cl-]` [hexadecylpyridinium chloride, N-(n-hexadecyl)-pyridinium chloride, reference compound], the “RH (Å) (±5.0 Å)” value ([2]; pH 5.5) is reported as 45.0 and 50.5 and 60.0 and 65.0 and 71.5 and 75.0 and 78.0.

With `Clc1ccc(COC(Cn2ccnc2)c2ccc(Cl)cc2Cl)c(Cl)c1` (stereo not drawn) [miconazole] the “intensification … by N+ tensides” value (fungus) was “≈ 35%”.

In the case of `NC(=O)c1[nH]nc([C@@H]2O[C@H](CO)[C@@H](O)[C@H]2O)c1O` [pyrazofurine], the “irreversible inhibition of pyrimidine biosynthesis” value (pyrimidine biosynthesis) is reported as 20%.

For `CC(N)C12CC3CC(CC(C3)C1)C2.Cl` (stereo not drawn) [rimantadine, α-methyl-1-adamantanemethylamine hydrochloride], the “dose with the same in vitro effect as the pure active substance” value (influenza A strains [4]) was 0.05 µg/mL.

For `O=c1[nH]c(=O)n([C@H]2C[C@H](O)[C@@H](CO)O2)cc1C(F)(F)F` [trifluorothymidine], the “lowering of the inhibition concentration compared with applications without quaternary ammonium bases” value [7] was 30%.

With “Cetyl-2,3-dihydroxy-propyl-hexadecyl-pyridinium” the “<RH> hydrodynamic radius” value [2] was 150.0 and 180.4 and 210.4 and 120.0.

With Dodecyl-pyrimidinium the “cmc × 10^-6 M” value ([1]; Table 2, HET≡N+-(CH2)x-CH3 Y-) was 1.20 × 10^-6 M.

With Hexadecyl-4-Hydroxy-pyridinium the “cmc × 10^-6 M” value ([1]; Table 2, HET≡N+-(CH2)x-CH3 Y-) was 0.95 × 10^-6 M.

In the case of Hexadecyl-pyrimidinium, the “cmc × 10^-6 M” value ([1]; Table 2, HET≡N+-(CH2)x-CH3 Y-) is reported as 2.50 × 10^-6 M.

For N-Hexadecyl-4-cetyl-imidazolinium, the “<RH> hydrodynamic radius” value [2] was 100 and 150.

With erythro-9-(2-hydroxy-3-nonyl)-adenine the “intensification of the antitumor activity” value (adenosine-desaminase) was “tenfold”.

In the case of polymyxin B, the plasma half life [8] is given as 4.5 h.
